Read-outs that look alike come from different tables or passages of the source.

One test has as its system cladosporium cucumerinum. The conditions noted are these: cited from earlier work.
The subject of another test is Venturia inaequalis. The conditions noted are these: 0.03 M; cited from earlier work.
Test [1] has as its system Phytophthora infestans. The settings on record: applied to leaves of tomato; cited from earlier work.
The test system of test [2] is Phytophthora infestans. The test is classed as in vivo.
The test system of the next test is Erysiphe graminis hordei. In words: Powdery mildew in barley (Table 5).
The test system of test [3] is Phytophthora infestans. In kind it is in vivo. The source holds these as a separate data set.
For test [4], the system named is Erysiphe graminis tritici. The test is described as follows: Powdery mildew in wheat (Table 5).
Description: (§1) For the following experiments we have used 10-days old potted wheat plants (Triticum asetivum cultivar Atir) and barley plants (Hhordeum vulgaris cultivar Amidon).
(§2) Plants were sprayed with the test compounds and two days lated were inoculated with the powdery mildew fungal pathogens. Wheat was inoculated with Erysiphe granims tritici. Barley was inoculated with the powdery Erysiphe granims hordei.
(§3) Inoculation was done by shaking infected donor plants harboring abundant conidia over the treated plants. Untreated plants were also inoculated as controls. Inoculated plants were placed in a growth chamber at 20-22C with 1 rhr photoperioed and 50-60% RH. At 9-10 days after inoculation disease intesity was visually assessed by estimating the percentage leaf area occupied by fungal colonies.
(§4) Control efficacy of the disease achieved by the sprayed test compound was calculated relative to the amount of disease seen in the control.
Test [5] concerns Erysiphe graminis tritici. The test is described as follows: Powdery mildew in wheat, additional examples (Table 6). The settings on record: 500 ppm, 7 days after inoculation. In kind it is in vivo. The procedure: Wheat plants (cv.Shafir) were raised from seed in the greenhouse, 30 plants per 0.2 liter pot. When the first leaf was fully developed plants were sprayed with the test solutions and placed in a 20° C. growth cabinet. Two days after spraying plants were dusted with conidia of E. graminis tritict so that about 100 spores were settled on 1 cm^2 of leaf area (both surfaces). […] Control efficacy was calculated relative to number of colonies developed on the control-inoculated untreated plants.

Test [6] concerns Pseudoperonospora cubensis. In words: Downy mildew in melon (Table 7). The settings on record: 500 ppm, 7 days after inoculation.
Protocol: (§5) Cucumber plants (cv,Dlila) and melon plants (cv.Ein Dor) were raised from seeds in 0.2 liter pots in the greenhouse. At 3 weeks after sowing when had 3 true leaves they were inoculated with sporangial suspension (1000 sporangia/ml) of P.cubensis (resistant to metalaxyl) and placed in 100% relative humidity in the dark for 20 hr. They were then place in a 20° C. growth cabinet for 7 days and assessed for disease development. Percentage leaf area covered with disease symptoms was evaluated and control efficacy was calculated relative to control inoculated plants.
The next test has as its system Plasmopara viticola. The test is described as follows: Downy mildew in grapes (Table 9). In kind it is in vivo. The settings on record: 500 ppm, 10 days after inoculation. The procedure:
Two days after spraying plants were inoculated with sporangial suspension of P.viticola ([…]) onto their lower leaf surface and placed in 100% relative humidity for 20 hr. The plants were then placed in a growth cabinets 20° C. for 10 days. Disease development was assessed according to the abaxial leaf surfaces area covered with fungal sporulation.

In test [7] the test system is Phytophthora infestans. The test is classed as in vivo. The settings on record: Tomato, 500 ppm, 7 days after inoculation.
Test [8] concerns Pseudoperonospora cubensis. In words: Downy mildew in cucumber (Table 8). The settings on record: 500 ppm, 7 days after inoculation.
Protocol: as §5
Setting [9] is: Barley 17.9.96, dose 500 (unit not given).
Setting [10] is: Barley 17.9.96, dose 2000 (unit not given).
The mark [11] stands for this setting: Wheat 7.8.96, dose 500 (unit not given).
Setting [12] is: Wheat 7.8.96, dose 2000 (unit not given).

Description for Erysiphe graminis hordei: as §1, §2, §3, §4

Take `NC(CO)C(=O)O` (racemic) [DL-serine]: the “behaviour as chemotherapeutant against the fungus on cucumber” value (“behaviour as chemotherapeutant” for short) in the test on cladosporium cucumerinum was “behaved as chemothrerpeutants”.
Consider `C[C@@H](O)[C@H](N)C(=O)O` (racemic) [DL-threonine], for which the “behaviour as chemotherapeutant” value in the test with cladosporium cucumerinum is “behaved as chemothrerpeutants”.
For `CCC(N)C(=O)O` (racemic) [DL-α-aminobutyric acid], the “reduction of scab in apple” value in the test with Venturia inaequalis is “reduce scab”.
As to `CC(N)CC(=O)O` (racemic) [DL-β-aminobutyric acid], the “protection of tomato leaves” value with Phytophthora infestans [1] is given as “protected those leaves”.
For the molecule `CC(CC(=O)NCc1ccccc1)NS(=O)(=O)c1ccccc1` (racemic) [Example 1, D,L-N-benzenesulfonyl-3-amino N-benzyl butyramide], the “Control Efficacy %” value in the test with Phytophthora infestans [2] (Tomato, 12.7.96, 500 ppm) was found to be 82%; with Phytophthora infestans [2] (Tomato, 12.7.96, 2000 ppm), 97%; in the test on Phytophthora infestans [2] (Tomato, 14.8/96, 2000 ppm), 90%; with Erysiphe graminis hordei (setting [9]), 25%; with Erysiphe graminis hordei (setting [10]), 75%; in the test with Phytophthora infestans [3] (Potato, 14.8.96, 2000 ppm) it was 72%. The “Control Efficacy %” value is 57% in the test with Phytophthora infestans [3] (Potato, 17.7.096, 500 ppm); 77% with Phytophthora infestans [3] (Potato, 17.7.096, 2000 ppm); 49% in the test with Phytophthora infestans [3] (Potato, 26.7.96, 500 ppm); 79% with Phytophthora infestans [3] (Potato, 26.7.96, 2000 ppm).
Turning to `CC(CC(=O)Nc1ccccc1)NS(=O)(=O)c1ccccc1` (racemic) [Example 2, D,L-N-benzensulfonyl-3-aminobutyranilide], the “Control Efficacy %” value with Phytophthora infestans [2] (Tomato, 12.7.96, 500 ppm) is 85%; in the test with Phytophthora infestans [2] (Tomato, 12.7.96, 2000 ppm), 85%; in the test on Phytophthora infestans [2] (Tomato, 14.8/96, 2000 ppm), 83%; in the test with Phytophthora infestans [3] (Potato, 14.8.96, 2000 ppm), 74%; with Phytophthora infestans [3] (Potato, 17.7.096, 500 ppm), 45%; in the test with Phytophthora infestans [3] (Potato, 17.7.096, 2000 ppm) it was 81%. The “Control Efficacy %” value with Phytophthora infestans [3] (Potato, 26.7.96, 500 ppm) is 42%; in the test on Phytophthora infestans [3] (Potato, 26.7.96, 2000 ppm), 68%.
For `CCCCCCCCOC(=O)CC(C)NC(=O)c1ccc(Cl)c(Cl)c1` (racemic) [Example 5, D,L-N-3,4-dichlorobenzoyl-3-aminobutyric acid n-octyl ester], the “Control Efficacy %” value in the test on Erysiphe graminis hordei (setting [9]) turned out to be 82%; in the test with Erysiphe graminis hordei (setting [10]) it was 85%; in test [4] (setting [11]) it was 76%; in test [4] (setting [12]) it was 92%.
`CC(CC(=O)OCCCl)NC(=O)c1ccc(Cl)cc1` (racemic) [Example 6, D,L-N-4-chlorobenzoyl-3-aminobutyric acid 2-chloro-ethyl ester]: the “Control Efficacy %” value with Phytophthora infestans [2] (Tomato, 12.7.96, 500 ppm) is listed as 76%; in the test on Phytophthora infestans [2] (Tomato, 12.7.96, 2000 ppm), 79%; in the test on Phytophthora infestans [2] (Tomato, 14.8/96, 2000 ppm), 67%; in the test on Erysiphe graminis hordei (setting [9]), 62%; in the test on Erysiphe graminis hordei (setting [10]), 75%; in the test on Phytophthora infestans [3] (Potato, 14.8.96, 2000 ppm) it was 88%. Besides, the “Control Efficacy %” value with Phytophthora infestans [3] (Potato, 17.7.096, 500 ppm) is reported as 75%; with Phytophthora infestans [3] (Potato, 17.7.096, 2000 ppm) it was 50%.
In the case of `C[C@@H](N)C(=O)O` [D-alaninie], the “reduction of scab in apple” value in the test on Venturia inaequalis is reported as “reduce scab”.
Consider `CC(C)C[C@@H](N)C(=O)O` [D-leucine, D-and DL leucine], for which the “reduction of scab in apple” value in the test on Venturia inaequalis is listed as “reduce scab”.
Turning to `N[C@H](CO)C(=O)O` [D-serine], the “behaviour as chemotherapeutant” value in the test with cladosporium cucumerinum is “behaved as chemothrerpeutants”.
Turning to `CC(C)CC(N)C(=O)O` (stereo not drawn) [DL leucine], in the test on Venturia inaequalis, the “reduction of scab in apple” value is recorded as “reduce scab”.
`CCCCCCCOC(=O)CC(C)NC(=O)c1ccc(C(C)(C)C)cc1` (centres unmarked) [compound 15, D,L N-4-tertbutylbenzoyl-3-aminobutyric acid heptyl ester]: the “Control efficacy (%) 7d” value in test [5] stood at 74%. The “Control efficacy % 7 days” value in [6] amounted to 97%. Further, in the test on Plasmopara viticola, the “Control efficacy % 10d” value came to 97%.
For the molecule `CCCOC(=O)CC(C)NS(=O)(=O)c1ccc(Cl)cc1` (centres unmarked) [compound 35, D,L N-4-chlorobenzenesulfonyl-3-aminobutyric acid propyl ester], the results for the “Control efficacy (%) 7d” value (in the test on Phytophthora infestans [7]; in [5]; in test [8]) were 81%, 81% and 77%, respectively.
Consider `Cc1ccc(C(=O)NC(C)CC(=O)OCCC(Cl)(Cl)Cl)cc1` (centres unmarked) [compound 36, D,L N-4-methylbenzoyl-3-aminobutyric acid 2-(trichloromethyl)ethyl ester], for which the results for the “Control efficacy (%) 7d” value (with Phytophthora infestans [7]; in [8]) were 81% and 82%, respectively.
In the case of `Cc1ccc(C(=O)NC(C)CC(=O)OC2CCCCC2)cc1` (centres unmarked) [compound 37, D,L N-4-methylbenzoyl-3-aminobutyric acid cyclohexyl ester], the “Control efficacy (%) 7d” value with Phytophthora infestans [7] is on record as 78%; in [8], 75%.
As to `CC(CC(=O)OC1CCCCC1)NC(=O)c1ccccc1` (centres unmarked) [compound 38, D,L N-benzoyl-3-aminobutyric acid cyclohexyl ester], the figures for the “Control efficacy (%) 7d” value (with Phytophthora infestans [7]; in test [5]; in test [8]) were 78%, 100% and 80%, respectively.
As to `CC(CC(=O)OC1CCCCC1)NS(=O)(=O)c1ccccc1` (centres unmarked) [compound 39, D,L N-benzenesulfonyl-3-aminobutyric acid cyclohexyl ester], the “Control efficacy (%) 7d” value in the test on Phytophthora infestans [7] is recorded as 75%; in test [8], 70%.
As for `CCCCCCCOC(=O)CC(C)NS(=O)(=O)c1ccc(Cl)cc1` (centres unmarked) [compound 40, D,L N-4-chlorobenzenesulfonyl-3-aminobutyric acid heptyl ester], the “Control efficacy (%) 7d” value in test [8] is reported as 82%.
Turning to `CCCCC(C)OC(=O)CC(C)NC(=O)c1ccccc1NC` (centres unmarked) [compound 52, D,L N-2-methylaminobenzoyl-3-aminobutyric acid 1-methylpentyl ester], the “Control efficacy (%) 7d” value with Phytophthora infestans [7] is listed as 75%; in [8], 97%.
For “D,L-N-β-methyl benzoyl-3-aminobutyric acid n-octyl ester [Example 3]”, the “Control Efficacy %” value with Phytophthora infestans [2] (Tomato, 12.7.96, 2000 ppm) turned out to be 70%; in the test with Phytophthora infestans [2] (Tomato, 14.8/96, 2000 ppm), 93%; in the test with Phytophthora infestans [3] (Potato, 14.8.96, 2000 ppm) it was 88%; with Phytophthora infestans [3] (Potato, 17.7.096, 500 ppm), 70%; in the test with Phytophthora infestans [3] (Potato, 17.7.096, 2000 ppm), 81%; in the test with Phytophthora infestans [3] (Potato, 26.7.96, 500 ppm) it was 85%. Also, the “Control Efficacy %” value in the test with Phytophthora infestans [3] (Potato, 26.7.96, 2000 ppm) worked out at 92%.
With “N-β-methyl benzoyl-3 aminobutyric acid-sec. butyl ester [Example 4]”, the “Control Efficacy %” value in the test on Phytophthora infestans [2] (Tomato, 12.7.96, 2000 ppm) is on record as 85%; with Phytophthora infestans [2] (Tomato, 14.8/96, 2000 ppm), 90%; in the test with Erysiphe graminis hordei (setting [9]), 87%; with Erysiphe graminis hordei (setting [10]), 95%; in the test with Phytophthora infestans [3] (Potato, 14.8.96, 2000 ppm) it was 77%; with Phytophthora infestans [3] (Potato, 17.7.096, 500 ppm) it was 56%. Moreover, the “Control Efficacy %” value with Phytophthora infestans [3] (Potato, 17.7.096, 2000 ppm) is 75%; in the test on Phytophthora infestans [3] (Potato, 26.7.96, 500 ppm) it was 23%; in the test on Phytophthora infestans [3] (Potato, 26.7.96, 2000 ppm), 42%; in [4] (setting [11]) it was 96%; in [4] (setting [12]), 96%.

The values are drawn from patent publication US6348614B1 (priority 1996, dated 2002).
